Patent US5102894A, “Substituted piperidine compounds and their use” (Novo Nordisk A/S, priority 1989, dated 1992)
Where a name gives a salt, the structure may show the parent alone.

Test system: voltage operated calcium channels (VOC)
Assay: inhibition of depolarization-induced 45Ca uptake into brain synaptosomes (crude P2 fraction)
Format: biochemical, male Wistar rat
Conditions: rat cerebral cortex synaptosomes (P2), KCl-depolarized samples, 15 s uptake at 37° C., pH 7.4; triplicate; from dose response curves
From the text: The pharmacological properties of the compounds of the invention can be illustrated by determining their capability to inhibit calcium uptake into brain synaptosomes.
Depolarization of neuronal membranes leads to an opening of socalled `voltage operated calcium channels` (VOC) in the membranes which allows a massive influx of calcium from the extracellular space. A crude synaptosomal preparation (socalled P2 fraction) contains small vesicles surrounded by neuronal membrane and it is possible in such a preparation to study a depolarization-induced opening of VOC.
A male Wistar rat is decapitated and the cerebral cortex removed and homogenized in 10 ml of ice-cold 0.32 M sucrose using a glass homogenizer with a teflon pestle. All subsequent steps for isolation of synaptosomes are done at 0°-4° C. The homogenate is centrifuged at 1000×g for 10 min and the resulting supernatant is re-centrifuged at 18000×g for 20 min. This pellet (P2) is resuspended in 0.32 M sucrose (5 ml per g of original tissue) with a teflon pestle.
The tubes are pre- incubated for 30 min on ice and then for 6 min at 37° C. in a water bath.
The incubation is continued for 15 s.
The amount of radioactivity on the filter disc is determined by liquid scintillation spectrometry.
Test substances are dissolved in 10 ml of 48% ethanol at a concentration of 0.44 mg/ml. Dilutions are made in 48% ethanol to give final concentrations of 0.1, 0.3, 1, 3 and 10 μg/ml. Experiments are performed in triplicate. Controls for depolarized and nondepolarized samples are included in the assay and test substances are only tested in depolarized samples.
The IC50 value is estimated from dose response curves.

First: CCCCN1CC[C@@H](c2ccc(C)o2)[C@H](COc2cccc(C(F)(F)F)c2)C1 (relative stereo) [Compound 12, HCl]
Second: CCCCCN1CC[C@@H](c2ccsc2)[C@H](COc2cccc(C(F)(F)F)c2)C1 (relative stereo) [Compound 31, (+-) trans 1-pentyl-4-(3-thienyl)-3-(3-trifluoromethylphenoxymethyl)piperidine, oxalate]
The “IC50 (concentration of test substance which inhibits 50% of stimulated uptake of 45Ca)” value of the first is 3.8-fold higher: 18 µg/mL for the first, 4.7 µg/mL for the second.

Going from CCCCCN1CC[C@@H](c2cccs2)[C@H](COc2ccccc2C#N)C1 (relative stereo) [Compound 15, (+-) trans 3-(2-cyanophenoxymethyl)-1-pentyl-4-(2-thienyl)piperidine, HCl] to CCCCN1CC[C@@H](c2cccs2)[C@H](COc2ccccc2OC(C)C)C1 (relative stereo) [Compound 27, (+-) trans 1-butyl-3-(2-isopropoxyphenoxymethyl)-4-(2-thienyl)piperidine, oxalate], the “IC50 (concentration of test substance which inhibits 50% of stimulated uptake of 45Ca)” value rises from 7.2 µg/mL to 13 µg/mL (1.8-fold).

Compared with CCCCN1CC[C@@H](c2cccs2)[C@H](COc2cccc(OC)c2)C1 (relative stereo) [Compound 25, (+-) trans 1-butyl-4-(2-thienyl)-3-(3-methoxyphenoxymethyl)piperidine, HCl], CCCCCN1CC[C@@H](c2cccs2)[C@H](COc2cccc(CN)c2)C1 (relative stereo) [Compound 28, (+-) trans 3-(3-aminomethylphenoxymethyl)-1-pentyl-4-(2-thienyl)piperidine,HCl] is 3.3-fold higher in “IC50 (concentration of test substance which inhibits 50% of stimulated uptake of 45Ca)” value: 9.1 µg/mL for the first, 30 µg/mL for the second.

CCCCCN1CC[C@@H](c2ccsc2)[C@H](COc2ccc3c(c2)OCO3)C1 (relative stereo) [Compound 30, (+-) trans 3-(3,4-methylenedioxyphenoxymethyl)-1-pentyl-4-(3-thienyl)piperidine, HCl] and CCCCCN1CC[C@@H](c2ccsc2)[C@H](COc2ccc(Cl)cc2)C1 (relative stereo) [Compound 37, (+-) trans 3-(4-chlorophenoxymethyl)-1-pentyl-4-(3-thienyl)piperidine, HCl] are within 1.5-fold of each other in “IC50 (concentration of test substance which inhibits 50% of stimulated uptake of 45Ca)” value: 4.9 µg/mL for the first, 3.6 µg/mL for the second.

Going from CCCCCN1CC[C@@H](c2ccsc2)[C@H](COc2ccc(C#N)cc2)C1 (relative stereo) [Compound 39, (+-) trans 3-(4-cyanophenoxymethyl)-1-pentyl-4-(3-thienyl)piperidine, HCl] to CCCCCN1CC[C@@H](c2ccsc2)[C@H](COc2ccc(OC(F)(F)F)cc2)C1 (relative stereo) [Compound 43, (+-) trans 3-(4-trifluoromethoxyphenoxymethyl)-1-pentyl-4-(3-thienyl)piperidine, HCl], the “IC50 (concentration of test substance which inhibits 50% of stimulated uptake of 45Ca)” value rises from 2.7 µg/mL to 10 µg/mL (3.7-fold).

Compared with FC(F)(F)c1cccc(OC[C@@H]2CNCC[C@H]2c2ccsc2)c1 (relative stereo) [Compound 44, (+-) trans 4-(thienyl)-3-(3-trifluoromethylphenoxymethyl)piperidine, HCl], CCC(C)CN1CC[C@@H](c2ccsc2)[C@H](COc2cccc(C(F)(F)F)c2)C1 (relative stereo) [Compound 47, (+-) trans(2-methylbutyl)-4-(3-thienyl)-3-(3-trifluoromethylphenoxymethyl)piperidine, HCl] is 2.1-fold higher in “IC50 (concentration of test substance which inhibits 50% of stimulated uptake of 45Ca)” value: 2.8 µg/mL for the first, 5.8 µg/mL for the second.

Test system: peripheral calcium uptake, e.g. in blood vessels and the heart
Assay: not given
Conditions: cited from earlier work

In the case of COc1ccc([C@@H]2Sc3ccccc3N(CCN(C)C)C(=O)[C@@H]2OC(C)=O)cc1 [Diltiazem], the “activity against peripheral calcium uptake” value is listed as “have activity”.
For COC(=O)C1=C(C)NC(C)=C(C(=O)OC)C1c1ccccc1[N+](=O)[O-] [Nifedipine], the “activity against peripheral calcium uptake” value is given as “have activity”.
In the case of COc1ccc(CCN(C)CCCC(C#N)(c2ccc(OC)c(OC)c2)C(C)C)cc1OC (stereo not drawn) [Verapamil], the “activity against peripheral calcium uptake” value is listed as “have activity”.
